Laboratory results published in patent US11939303B2, “Sulfamate derivatives of 4-(1-phenyl-1H-[1,2,3]triazol-4-yl)-phenol, derivatives of 4-(1-phenyl-1H-[1,2,3]triazol-4-yl)-phenol, their medical use and the method of obtaining 4-(1-phenyl-1H-[1,2,3]triazol-4-yl)-phenyl sulfamate derivatives” (POLITECHNIKA GDANSKA, priority 2018, dated 2024).

Target: T1, STS steroid sulfatase enzyme isolated from a human placenta (Homo sapiens, UniProt P08842)
T1 construct: human placenta was stripped from membranes and homogenized in ice-cold Tris-HCl buffer pH 7.4; from tissue; host or cells: human placenta
T1 sequence (P08842 22-583): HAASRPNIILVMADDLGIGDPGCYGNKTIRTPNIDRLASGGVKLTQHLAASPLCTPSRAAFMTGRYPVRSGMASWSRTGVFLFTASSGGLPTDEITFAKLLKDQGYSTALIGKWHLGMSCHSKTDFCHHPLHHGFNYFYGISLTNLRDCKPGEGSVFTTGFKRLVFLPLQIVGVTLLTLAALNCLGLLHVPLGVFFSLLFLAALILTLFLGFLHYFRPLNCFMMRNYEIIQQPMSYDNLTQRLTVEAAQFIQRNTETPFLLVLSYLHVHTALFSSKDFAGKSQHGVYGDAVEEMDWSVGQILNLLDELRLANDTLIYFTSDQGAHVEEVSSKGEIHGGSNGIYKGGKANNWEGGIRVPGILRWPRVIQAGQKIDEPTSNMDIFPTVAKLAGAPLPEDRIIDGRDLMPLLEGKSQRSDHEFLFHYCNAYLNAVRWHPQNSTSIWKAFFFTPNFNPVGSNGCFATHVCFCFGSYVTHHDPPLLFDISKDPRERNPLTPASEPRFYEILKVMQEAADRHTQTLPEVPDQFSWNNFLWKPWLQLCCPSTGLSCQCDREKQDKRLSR
Assay: STS steroid sulfatase enzymatic assay with nitrophenyl sulfate (NPS)
Type: biochemical
Conditions: NPS substrate, pH 7.25, 60 minutes, p-nitrophenol at 405 nm, read-out: IC50 (ability to inhibit steroid sulfatase activity)
Method: The medical and biological activity of the compounds defined the general formula 1, for use as active compounds—medicament—drugs and/or as STS steroid sulfatase inhibitors, diagnostic agent and biological use were evaluated using the STS steroid sulfatase enzyme isolated from a human placenta according to the following procedure: • human placenta was stripped from membranes and homogenized in ice-cold Tris-HCl buffer pH 7.4 containing 0.1% Triton X-100 and 0.02% NaN3. • the homogenate was alternately frozen and thawed a few times and then centrifuged at 100000 g for 60 min, • the supernatant was removed and the same procedure from homogenization to centrifugation was carried out 5 times, • finally, the enzyme was purified by three-step chromatography using columns: DEAE-cellulose, Con A-Sepharose and Bio-Gel A-1.5 and appropriate buffers. All steps were carried out at 4° C. The biological, diagnostics and medical activity of STS inhibitors, for the compounds defined by the general formula 1, were evaluated by analyzing the progress of the enzymatic reaction using nitrophenyl sulfate (NPS). The final volume of the reaction mixture was 120 μL (pH=7.25) and contained 0.8 μmol NPS, 40 μmol Tris HCl and the appropriate amount of enzyme. After 60 minutes of reaction time, 0.5 mL of 1M NaOH was added to the reaction mixture. Released p nitrophenol was determined using a spectrophotometer at 405 nm. In the final step, the IC50 parameter values (characterizing the ability of obtained compounds to inhibit steroid sulfatase activity) were determined. […] Therefore, the compounds of the general formula 1 have biological, medical and diagnostic activity, and have medical applications for use as a medicament a well as in diagnostics for use as a diagnostic agent. It has been confirmed that the new compounds with general formula 1, as one of the possible mechanisms of medical and biological action, show a strong STS inhibitory activity at low micromolar or nanomolar concentrations, which is sufficient for the compounds to act as drugs classified as steroid sulfatase inhibitors or as compounds for use as steroid sulfatase inhibitors in diagnostic tests, in vitro clinical trials and its use in biological sciences. In particular, the compounds of the general formula 1 are for use as medicaments—useful as drugs in cancer therapy and in particular in the therapy of hormone-dependent cancers of animals, in particular mammals, including humans.

Structure (SMILES)	IC50
NS(=O)(=O)Oc1ccc(-c2cn(-c3cc(C(F)(F)F)cc(C(F)(F)F)c3)nn2)cc1 [4-[1-(3,5-Bis-trifluoromethyl-phenyl)-1H-[1,2,3]triazol-4-yl]-phenyl sulfamate]	821 nM
NS(=O)(=O)Oc1ccc(-c2cn(-c3cc(F)cc(F)c3)nn2)cc1 [4-[1-(3,5-difluoro-phenyl)-1H-[1,2,3]-triazol-4-yl]-phenyl sulfamate]	36 nM
NS(=O)(=O)Oc1ccc(-c2cn(-c3cccc(C(F)(F)F)c3)nn2)cc1 [4-[1-(3-trifluoromethyl-phenyl)-1H-[1,2,3]-triazol-4-yl]-phenyl sulfamate]	180 nM
NS(=O)(=O)Oc1ccc(-c2cn(-c3ccc(OC(F)(F)F)cc3)nn2)cc1 [4-[1-(4-trifluoromethoxy-phenyl)-1H-[1,2,3]-triazol-4-yl]-phenyl sulfamate]	240 nM
